pIC50: −log10 of the molar value. Where a SMILES comes first, the peptide text is derived from it. [ ]: non-standard residue; d: D form. βAla = NCCC(=O)O
Key:
Jurkat cell = conditions: read-out: IC50, blocking Jurkat cell adhesion to CS-1 coated plates; cited from earlier work
αvβ3 = αvβ3 (Homo sapiens, UniProt P05106+P06756); conditions: cited from earlier work
Jurkat cells = conditions: cited from earlier work
αIIbβIIIa = αIIbβIIIa (Homo sapiens, UniProt P05106+P08514); conditions: cited from earlier work
Chain of αIIbβIIIa (P08514 32-887 limits assumed): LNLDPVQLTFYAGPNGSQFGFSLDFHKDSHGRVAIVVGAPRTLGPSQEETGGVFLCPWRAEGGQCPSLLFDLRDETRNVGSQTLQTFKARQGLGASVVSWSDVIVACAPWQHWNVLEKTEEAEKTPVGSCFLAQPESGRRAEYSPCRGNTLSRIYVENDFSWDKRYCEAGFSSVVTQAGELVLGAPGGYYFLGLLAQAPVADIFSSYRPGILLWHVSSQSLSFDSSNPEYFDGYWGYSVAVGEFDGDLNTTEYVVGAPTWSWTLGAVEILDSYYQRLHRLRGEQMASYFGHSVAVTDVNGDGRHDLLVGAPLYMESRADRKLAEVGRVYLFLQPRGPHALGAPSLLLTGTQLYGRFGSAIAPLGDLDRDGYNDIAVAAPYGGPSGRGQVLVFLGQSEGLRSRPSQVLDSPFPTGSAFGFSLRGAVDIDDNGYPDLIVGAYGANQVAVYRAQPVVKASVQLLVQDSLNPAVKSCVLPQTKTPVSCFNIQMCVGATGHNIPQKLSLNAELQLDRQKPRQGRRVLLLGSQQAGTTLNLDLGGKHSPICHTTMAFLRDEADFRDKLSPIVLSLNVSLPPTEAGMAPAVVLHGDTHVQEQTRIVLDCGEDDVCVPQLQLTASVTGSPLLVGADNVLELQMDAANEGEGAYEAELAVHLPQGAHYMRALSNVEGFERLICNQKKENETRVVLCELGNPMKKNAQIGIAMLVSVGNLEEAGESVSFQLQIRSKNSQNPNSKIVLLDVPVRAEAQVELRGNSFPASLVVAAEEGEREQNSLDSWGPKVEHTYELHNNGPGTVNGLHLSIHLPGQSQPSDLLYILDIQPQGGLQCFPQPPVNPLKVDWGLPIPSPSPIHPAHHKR
Chain of αIIbβIIIa (P08514 891-1039 partner limits assumed): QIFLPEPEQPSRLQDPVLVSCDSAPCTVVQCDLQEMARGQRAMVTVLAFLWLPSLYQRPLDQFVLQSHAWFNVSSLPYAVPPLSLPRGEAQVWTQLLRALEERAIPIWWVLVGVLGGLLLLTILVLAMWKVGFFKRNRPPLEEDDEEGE
Chain of αIIbβIIIa (P05106 27-788): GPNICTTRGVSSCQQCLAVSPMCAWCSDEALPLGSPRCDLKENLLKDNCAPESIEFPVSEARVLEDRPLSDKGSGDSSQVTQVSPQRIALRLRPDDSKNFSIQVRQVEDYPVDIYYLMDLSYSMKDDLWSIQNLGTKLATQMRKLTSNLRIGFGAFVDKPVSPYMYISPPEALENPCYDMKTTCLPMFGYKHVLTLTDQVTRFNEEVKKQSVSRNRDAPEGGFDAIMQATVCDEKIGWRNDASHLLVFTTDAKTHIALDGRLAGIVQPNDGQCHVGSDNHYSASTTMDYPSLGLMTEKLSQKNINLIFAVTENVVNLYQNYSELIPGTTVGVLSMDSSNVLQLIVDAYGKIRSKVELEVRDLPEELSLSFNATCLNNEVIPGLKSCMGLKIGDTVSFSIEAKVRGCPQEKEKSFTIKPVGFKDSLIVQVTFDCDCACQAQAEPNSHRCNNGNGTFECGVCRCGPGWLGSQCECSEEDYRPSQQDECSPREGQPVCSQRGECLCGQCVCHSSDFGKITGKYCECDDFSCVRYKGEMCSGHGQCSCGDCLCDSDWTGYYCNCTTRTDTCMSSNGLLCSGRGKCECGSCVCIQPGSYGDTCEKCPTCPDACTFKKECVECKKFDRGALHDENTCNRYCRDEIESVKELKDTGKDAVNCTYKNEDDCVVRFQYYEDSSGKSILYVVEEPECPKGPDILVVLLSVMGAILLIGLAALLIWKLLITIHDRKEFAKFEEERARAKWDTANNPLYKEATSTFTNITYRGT

[1] = biological tests (not specified); conditions: at 200 μM
[2] = system: 120 kDa chymotryptic fragment of fibronectin; conditions: cited from earlier work
leukocyte cell = conditions: cited from earlier work

Chain of αvβ3 (P06756 31-889 limits assumed): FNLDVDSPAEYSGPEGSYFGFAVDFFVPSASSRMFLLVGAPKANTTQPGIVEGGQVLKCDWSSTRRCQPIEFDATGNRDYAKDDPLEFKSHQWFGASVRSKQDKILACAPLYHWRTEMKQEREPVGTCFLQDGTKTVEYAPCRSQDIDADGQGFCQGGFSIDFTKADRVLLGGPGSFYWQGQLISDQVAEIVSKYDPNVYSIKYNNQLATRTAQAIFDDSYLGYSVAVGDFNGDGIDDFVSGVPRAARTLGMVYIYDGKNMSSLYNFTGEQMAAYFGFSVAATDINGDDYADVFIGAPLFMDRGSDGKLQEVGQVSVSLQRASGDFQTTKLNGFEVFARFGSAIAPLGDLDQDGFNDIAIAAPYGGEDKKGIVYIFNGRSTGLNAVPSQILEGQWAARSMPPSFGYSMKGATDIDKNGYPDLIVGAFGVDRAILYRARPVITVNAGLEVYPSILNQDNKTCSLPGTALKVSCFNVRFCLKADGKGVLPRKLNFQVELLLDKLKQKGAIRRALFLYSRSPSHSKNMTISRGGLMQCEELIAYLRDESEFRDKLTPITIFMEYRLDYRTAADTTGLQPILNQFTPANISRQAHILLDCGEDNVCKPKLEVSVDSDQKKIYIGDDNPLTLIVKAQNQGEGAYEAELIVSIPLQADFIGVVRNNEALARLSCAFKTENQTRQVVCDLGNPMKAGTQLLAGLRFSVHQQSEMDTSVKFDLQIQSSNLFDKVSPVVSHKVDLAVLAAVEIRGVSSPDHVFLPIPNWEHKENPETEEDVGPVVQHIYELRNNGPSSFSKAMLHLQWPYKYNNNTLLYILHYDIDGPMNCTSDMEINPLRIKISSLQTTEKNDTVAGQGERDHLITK
Chain of αvβ3 (P06756 891-1048 partner limits assumed): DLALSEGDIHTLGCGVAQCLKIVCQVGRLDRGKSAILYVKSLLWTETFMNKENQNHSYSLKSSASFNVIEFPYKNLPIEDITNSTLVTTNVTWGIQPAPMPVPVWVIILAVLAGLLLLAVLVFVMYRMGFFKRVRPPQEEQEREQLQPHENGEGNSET
Chain of αvβ3 (P05106 27-788): as the sequence (P05106 27-788) above

Compound: 1-adamantaneacetyl-Cys-Gly-Arg-Gly-Asp-Ser-Pro-Cys
- pIC50 (Jurkat cell): 4.52
- inhibition of function in αvβ3-dependent assay (αvβ3): inhibited function
- inhibition of Jurkat cell binding to fibronectin coated plates (Jurkat cells): inhibited the binding
- inhibition of function in αIIbβIIIa-dependent assay (αIIbβIIIa): inhibited function

Compound: CC[C@H](C)[C@@H]1NC(=O)CCNC(=O)[C@H](C(C)C)NC(=O)[C@H](CC(=O)O)NC(=O)[C@H](CC(C)C)NC1=O (cyclo(DV[βAla]IL))
- activity in biological tests [1]: inactive

Compound: Arg-Cys-Asp-thioproline-Cys
- inhibition of binding to 120 kDa fibronectin fragment [2]: inhibited the binding
- inhibition of leukocyte cell adhesion to fibronectin (leukocyte cell): inhibitor of leukocyte cell adhesion to fibronectin

Compound: Cys-Leu-His-Gly-Pro-Glu-Ile-Ieu-Asp-Val-Pro-Ser-Thr
- pIC50 (Jurkat cell): 4.52

— patent US6034056A, “Fibronectin adhesion inhibitors” (Zeneca Limited, priority 1994, dated 2000)
